Assay [1] has as its target T1, System xc− (Homo sapiens, UniProt Q9UPY5).
T1 construct: in vitro culture system of human glial cells from brain astrocytoma (1321N1); endogenous in cells; host or cells: 1321N1 human astrocytoma cells
T1 sequence (Q9UPY5 1-501): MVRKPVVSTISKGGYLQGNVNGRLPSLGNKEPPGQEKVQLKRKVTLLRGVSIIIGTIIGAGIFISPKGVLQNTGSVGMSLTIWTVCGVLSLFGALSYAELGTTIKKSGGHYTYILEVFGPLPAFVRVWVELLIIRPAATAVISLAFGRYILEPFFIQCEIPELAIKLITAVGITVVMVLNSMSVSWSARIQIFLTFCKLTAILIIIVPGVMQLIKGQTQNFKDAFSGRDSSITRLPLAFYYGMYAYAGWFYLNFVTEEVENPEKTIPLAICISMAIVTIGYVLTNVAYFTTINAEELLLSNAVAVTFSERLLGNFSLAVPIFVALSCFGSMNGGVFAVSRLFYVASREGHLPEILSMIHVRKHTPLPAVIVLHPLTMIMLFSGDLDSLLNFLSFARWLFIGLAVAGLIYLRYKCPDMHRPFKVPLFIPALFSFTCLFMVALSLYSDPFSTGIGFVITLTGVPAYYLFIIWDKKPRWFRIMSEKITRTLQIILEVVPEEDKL
T1 sequence (P08195 1-529 partner): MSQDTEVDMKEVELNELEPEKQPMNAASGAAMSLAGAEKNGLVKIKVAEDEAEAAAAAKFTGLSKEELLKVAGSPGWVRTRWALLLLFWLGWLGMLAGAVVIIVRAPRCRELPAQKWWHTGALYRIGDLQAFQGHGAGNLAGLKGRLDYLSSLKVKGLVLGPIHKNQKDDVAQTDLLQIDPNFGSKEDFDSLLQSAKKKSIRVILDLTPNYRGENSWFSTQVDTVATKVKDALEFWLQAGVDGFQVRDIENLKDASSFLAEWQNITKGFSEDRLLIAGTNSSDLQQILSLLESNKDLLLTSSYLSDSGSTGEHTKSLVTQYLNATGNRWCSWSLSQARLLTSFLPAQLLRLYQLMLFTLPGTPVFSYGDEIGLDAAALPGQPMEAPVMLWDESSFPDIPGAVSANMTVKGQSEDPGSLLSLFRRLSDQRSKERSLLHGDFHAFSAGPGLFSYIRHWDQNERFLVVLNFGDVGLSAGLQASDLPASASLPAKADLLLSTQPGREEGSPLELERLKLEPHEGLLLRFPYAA
Description: 14C-cystine uptake in human glial cells from brain astrocytoma (1321N1). It is filed as cell-based. Particulars: 1321N1 cells. How it is done: The goal of these experiments was to determine ^14C-cystine uptake.
The screening of compounds was performed using an in vitro culture system of human glial cells from brain astrocytoma (1321N1). Cells were plated on 24 well plates coated with poly-D-lysine and laminin and grown in a balanced salt solution supplemented with 5% heat inactivated horse serum, 5% fetal bovine serum, 2 mM glutamine and glucose (total 21 mM). Cultures were maintained in humidified 5% CO2 incubators at 37° C. for 3-4 days before experiments were performed, at this time the cultures has formed a single confluent layer. For experiments, cultures were washed 3 times into a Na-free HEPES and HCO3^− buffered balanced salt solution. After 1 hour, the test compounds are added. Following a three hour incubation, ^14C-cystine (0.025 mCi/mL) was then added for 20 minutes. Following the ^14C-cystine exposure, cultures were washed 3 times with ice cold HEPES buffered saline solution and dissolved in 250 μl sodium dodecyl sulfate (0.1%). An aliquot (200 μl) was removed and added to scintillation fluid for counting. Values were normalized to ^14C-cystine uptake in untreated controls on the same experimental plate.

The target in assay [2] is T1, System xc−. Description: 3H-glutamate release from human glial cells from brain astrocytoma (1321N1). Particulars: at 3 hours, 1321N1 cells. It is filed as cell-based. Here is the method:
This assay also uses the cell culture system of human glial cells from brain astrocytoma (1321N1) described above. Initially, cells are washed with HBBSS, and ^3H-glutamate is added (PerkinElmer: 1 mCi/mL stock solution is diluted (30 μL+500 HBBSS) and 10 μL of diluted radiolabel is added to each well). Following a 1 hour incubation to load the cells with the labeled glutamate, the cells are washed again with HBBSS, and the drug is added. At 30, 90, and 180 minutes, 50 μL of extracellular media is sampled from each well and is measured using a Beckman LS 6500 scintillation counter.

The next assay has as its system Rats. In words: Elevated-plus maze. It is filed as in vivo. Particulars: for time spent on the open arms: one hour prior to testing, five minute session. Here is the method: Rats were tested in a standard elevated plus maze; testing occurred in a dimly illuminated room using only two lights mounted over the maze. Animals were allowed to habituate to the room for at least one hour prior to treatment. One hour prior to testing, rats received a compound of the present invention (0-30 mg/kg, P.O.). For testing, the rat was placed in the elevated plus maze for five minutes, alternating the starting position between facing an open arm and facing a closed arm. The session was recorded and an observer blind to treatment recorded the number of explorations, entries and time spent in the open arm. Explorations were defined as the rat placing two feet into an open arm without fully entering said arm. Entries were defined as the rat placing all four feet in an open arm. Time of entry in the open arm was recorded from the time the rat placed four feet in the open arm until two of the rats' feet entered the open square.

Assay [3] is described as follows: Brain levels of glutathione following oral administration. It is filed as in vivo. Particulars: C57BL/6 mice, 100 mg/kg oral, 4 hours; for glutathione in the brain: brain tissue. Here is the method:
A compound of the invention was administered orally to C57BL/6 mice at either 10 or 100 mg/kg. Brain samples were collected at 0.25, 0.50, 1, 2 and 4 hours following the oral administration. Levels of NAC and glutathione were quantified in the brain samples using liquid chromatography-mass spectrometry (LC-MS/MS).

In the case of `CC(=O)N[C@@H](CSC(=O)c1ccc(C)cc1)C(=O)O` [Pro-2023, (2R)-2-Acetylamino-3-(4-methyl-benzoylsulfanyl)-propionic acid], the inhibition at 1000 µM on System xc− [1] (1000 μM, three hour incubation, read-out: decrease (inhibition) in 14C-cystine uptake) was approximately 45%. Moreover, the “increase in 3H-glutamate release” value at System xc− [2] (300 μM) is listed as “approximately 135%”. In the assay with Rats (10 or 30 mg/kg PO), the “increase of time spent on the open arm” value is “about 100%” and the “time spent on the open arms” value is given as “around 27 seconds”. Besides, in assay [3], the “glutathione in the brain, times that of the vehicle” value is “about 2 times” and the “glutathione in the brain” value is on record as “about 200 nmol/g”.
Consider `CCOC(=O)[C@H](CSC(=O)C1CSC(=O)N1)NC(C)=O` (stereo partly drawn) [Pro-4047, Ethyl (2R)-2-acetamido-3-(2-oxo-1,3-thiazolidine-4-carbonylsulfanyl) propanoate], for which the “decrease in 14C-cystine uptake” value at System xc− [1] (over the concentrations tested, dose-dependent) was 20-60%. The “increase in 3H-glutamate release” value at System xc− [2] (100 μM) is listed as “approximately 40%”. Besides, in the assay with Rats (10 mg/kg PO), the “increase of time on the open arms over control” value is reported as “not a significant increase over control” and the “time spent on the open arms” value is “around 22 seconds”.
On to `CCOC(=O)[C@H](CSC(=O)c1ccc(C)cc1)NC(C)=O` [Pro-4051, Ethyl (2R)-2-acetamido-3-(4-methylbenzoylsulfanyl)propanoate], for which the “decrease in 14C-cystine uptake” value on System xc− [1] (100 μM (most effective concentration), average of three experiments) was “approximately 28%”. Moreover, the “increase in 3H-glutamate release” value on System xc− [2] (300 μM) was “approximately 100%”. For the same molecule, in the assay on Rats (10 mg/kg PO), the “increase of time on the open arms over control” value was approximately 150% and the “time spent on the open arms” value is on record as “around 48 seconds”. In assay [3], the “glutathione in the brain, times that of the vehicle” value is reported as “about 1.05 times” and the “glutathione in the brain” value was “about 1960 nmol/g”.

These data come from patent publication US10961187B2, “Substituted N-acetyl-L-cysteine derivatives and related compounds” (Promentis Pharmaceuticals, Inc., priority 2013, dated 2021).
